Test: not given
Conditions: in vivo, po; cited from earlier work
For `CO[C@@]1(NC(=O)C(C(=O)O)c2ccc(O)cc2)C(=O)N2C(C(=O)O)=C(CSc3nnnn3C)CO[C@@H]21` (stereo partly drawn) [Example S-6059], the oral activity is given as “poor oral activity”. In the case of `CC1(C)S[C@@H]2[C@H](NC(=O)C(C(=O)Oc3ccccc3)c3ccccc3)C(=O)N2[C@H]1C(=O)O` (stereo partly drawn) [carfecillin], the absorbed is listed as 40% and the blood levels is listed as “low blood levels of carbenicillin”. In the case of `CC1(C)S[C@@H]2[C@H](NC(=O)C(C(=O)Oc3ccc4c(c3)CCC4)c3ccccc3)C(=O)N2[C@H]1C(=O)O` (stereo partly drawn) [carindacillin], the absorbed is listed as 40% and the blood levels is listed as “low blood levels of carbenicillin”. In the case of `CC1=C(C(=O)O)N2C(=O)[C@@H](NC(=O)[C@H](N)c3ccc(O)cc3)[C@H]2SC1` [cefdioxil], the absorbed is listed as “greater than 80%”. For `CO[C@@]1(NC(=O)Cc2cccs2)C(=O)N2C(C(=O)O)=C(COC(N)=O)CS[C@@H]21` [cefoxitin, (6R-cis)-3-[[(amino-carbonyl)oxy]methyl]-7-methoxy-8-oxo7[(2-thienylacetyl)-amino]-5-thia-1-azabicyclo [4.2.0]oct-2-ene-2-carboxylic acid], the oral activity is given as “poor oral activity”. In the case of `CO/N=C(\C(=O)N[C@@H]1C(=O)N2C(C(=O)O)=C(COC(N)=O)CS[C@H]12)c1ccco1` [cefuroxime], the oral activity is listed as “poor oral activity”. In the case of `CC(=O)OCC1=C(C(=O)O)N2C(=O)[C@@H](NC(=O)Cc3cccs3)[C@H]2SC1` [cephalothin], the oral activity is listed as “poor oral activity”. In the case of `CC1=C(C(=O)O)N2C(=O)[C@@H](NC(=O)[C@H](N)C3=CCC=CC3)[C@H]2SC1` [cephradine], the absorbed is given as “greater than 80%”.

Same assay, conditions: oral; prior art; cited from earlier work
In the case of `CO[C@@]1(NC(=O)CSCC#N)C(=O)N2C(C(=O)O)=C(CSc3nnnn3C)CS[C@@H]21` [Cefmetazole], the oral activity is listed as “poor oral activity”. In the case of `CCN1CCN(C(=O)N[C@@H](C(=O)N[C@@H]2C(=O)N3C(C(=O)O)=C(CSc4nnnn4C)CS[C@H]23)c2ccc(O)cc2)C(=O)C1=O` [Example T-1551], the oral activity is listed as “poor oral activity”. In the case of `CC1(C)S[C@@H]2[C@H](NC(=O)[C@H](N)c3ccc(O)cc3)C(=O)N2[C@H]1C(=O)O` [amoxicillin, 6-[[amino(4-hydroxyphenyl)-acetyl]amino]-3,3-dimethyl-7-oxo-4-thia-1-azabicyclo-[3.2.0]heptane-2-carboxylic acid], the oral activity is given as “poor oral activity”. For `CC1(C)S[C@@H]2[C@H](NC(=O)[C@H](N)c3ccccc3)C(=O)N2[C@H]1C(=O)O` [ampicillin], the oral activity is given as “poor oral activity”. For `N[C@@H](C(=O)N[C@@H]1C(=O)N2C(C(=O)O)=C(Cl)CS[C@H]12)c1ccccc1` [cefaclor], the absorbed is listed as “greater than 80%”. For `Cc1nnc(SCC2=C(C(=O)O)N3C(=O)[C@@H](NC(=O)[C@H](N)c4ccc(O)cc4)[C@H]3SC2)s1` [cefaporole], the oral activity is given as “poor oral activity”. In the case of `Cc1nnc(SCC2=C(C(=O)O)N3C(=O)[C@@H](NC(=O)Cn4cnnn4)[C@H]3SC2)s1` [cefaxolin], the oral activity is given as “poor oral activity”. In the case of `CC(=O)OCC1=C(C(=O)O)N2C(=O)[C@@H](NC(=O)CC#N)[C@H]2SC1` [cephacetrile], the oral activity is listed as “poor oral activity”. For `CC(=O)OCC1=C(C(=O)O)N2C(=O)[C@@H](NC(=O)[C@H](N)c3ccccc3)[C@H]2SC1` [cephaloglycin], the absorbed is given as “greater than 80%”. For `O=C(Cc1cccs1)N[C@@H]1C(=O)N2C(C(=O)[O-])=C(C[n+]3ccccc3)CS[C@H]12` [cephaloridine], the oral activity is listed as “poor oral activity”. In the case of `CC(=O)OCC1=C(C(=O)O)N2C(=O)[C@@H](NC(=O)CCC[C@@H](N)C(=O)O)[C@H]2SC1` [cephalosporin C], the oral activity is given as “lack of oral activity”. For `CC(=O)OCC1=C(C(=O)O)N2C(=O)[C@@H](NC(=O)CSc3ccncc3)[C@H]2SC1` [cephapirin], the oral activity is listed as “poor oral activity”. For `CC1(C)S[C@@H]2[C@H](NC(=O)COc3ccccc3)C(=O)N2[C@H]1C(=O)O` [penicillin V], the blood levels is given as “higher blood levels of the active therapeutic agent”. In the case of `CC1(C)S[C@@H]2[C@H](NC(=O)[C@H](C(=O)O)c3ccsc3)C(=O)N2[C@H]1C(=O)O` [ticarcillin], the oral activity is listed as “cannot be administered by the oral route”.

Test: not given
Conditions: gastric acid; prior art; cited from earlier work
In the case of `CC1(C)S[C@@H]2[C@H](NC(=O)COc3ccccc3)C(=O)N2[C@H]1C(=O)O` [penicillin V], the acid stability is listed as “more acid stable”.

Test: Blood level AUC after oral capsule of β-lactam antibiotic with adjuvant in dogs
Format: in vivo, dog (Beagles)
Conditions: 300 mg/kg, dog, per os capsule, control, no absorption promotor, carbenicillin by bioassay, read-out: (AUC)° area below the blood level curve
Description: Animal: Beagles (body weight 9.9-12.0 kg), 2 animals per test
Drug: β-Lactam antibiotics
Adjuvant: Hydroxylated aromatic carboxylic acids
Dose: β-Lactam antibiotic/adjuvant=300 mg/300 mg/kg
Form of inoculum: Capsule
Route of administration: Per os
Blood sampling: Vein (upper arm)
Object of assay: Blood level
Quantitation: Carbenicillin was determined by bioassay.
Work on `CC1(C)S[C@@H]2[C@H](NC(=O)C(C(=O)O)c3ccccc3)C(=O)N2[C@H]1C(=O)O` (stereo partly drawn) [Carbenicillin] yielded an AUC of 5200 ng·h/mL.

Test: in vivo
Conditions: mouse, urine, po, control without sodium salicylate, cefmetazole 50 mg/kg, gavage, mice, ± standard deviation, 8 mice, read-out: Percent of Dose In Urine
Description: The sodium salt of cefmetazole (50 mg/kg) and sodium salicylate (200 mg/kg) dissolved in water were given to mice by gavage. As a control, mice were given an equal dose of the sodium salt of cefmetazole in water without the added sodium salicylate. The mice were place in individual metabolism cages and their urines collected after 24 hours.
The urine samples were acidified to pH 2.0 with 1N phosphoric acid. Acidified samples were applied to 100-200 mesh XAD.2 columns (1.5 ml), and the column washed with H2 O. Cefmetazole was eluted with 2 ml methanol and measured by high pressure liquid chromatography which was carried out using an Altex liquid chromatograph equipped with a dual wavelength recorder (254 nm and 280 nm). The column was a LiChrosorb 10 RP-18 (length=25 cm., internal diameter--4.6 mm) obtained from Chrompack, Whittier, CA. All assays were done at ambient temperatures. A 3 cm guard column of RP-18 column material (Rheodyne, Inc., Berkeley, CA) was also used. […] Concentrations of cefmetazole were determined by measuring peak height at 254 nm and evaluating on the basis of standard curves run under identical conditions.
Molecule `CO[C@@]1(NC(=O)CSCC#N)C(=O)N2C(C(=O)O)=C(CSc3nnnn3C)CS[C@@H]21` [Cefmetazole] has a dose excreted at 24 h of 9.1 ± 7.5%.
